Test results: article PMC10813153, “Development of a Novel Covalently Bonded Conjugate of Caprylic Acid Tripeptide (Isoleucine–Leucine–Aspartic Acid) for Wound-Compatible and Injectable Hydrogel to Accelerate Healing” (Biomolecules, 2024)
“Also recorded” adds a separate entry of the source. Where a SMILES comes first, the peptide text is derived from it. The star is where a group is joined. Palmitoyl = CCCCCCCCCCCCCCCC(=O)*; Myristoyl = CCCCCCCCCCCCCC(=O)*; Lauroyl = CCCCCCCCCCCC(=O)*; Octanoyl = CCCCCCCC(=O)*

Columns and labels:
[1] = Hydrogel formation, confirmed by vial inversion method; assay type: physicochemical; details: for Gelation Time: time after the pH was adjusted to 7.4; for Concentration at which hydrogel forms in PBS: PBS buffer, remained a solution below, vial inversion test; for Gelation Feature: conjugate 1.5% w/v in PBS saline, pH 6.5–7.8, dissolved at pH 9 then readjusted, sonication, vial inversion; for Hydrogel stability when shaken by hand: visual, compared with other conjugates
Experimental: Lyophilized fatty acid–peptide conjugates were dissolved in phosphate-buffered saline (PBS) at a final concentration of 0.5% (5.0 mg in 1 mL of PBS), 1.5% (15.0 mg in 1 mL of PBS), and 3% (30.0 mg in 1 mL of PBS). The pH of the peptide solutions was increased to 9.0 by adding 0.1 M NaOH to dissolve the compounds and readjusted to pH 2–8 by the drop-wise addition of 0.1 N HCl, followed by sonication. […] The gel formation was confirmed by the vial inversion method, and photographs were taken.

[2] = as above; assay type: physicochemical; details: 1.5% w/v in PBS
[3] = Gross assessment of toxicity during wound healing test; parameters: species or system C57BL/6J mice; details: mouse, in vivo
Excerpt: The animal use protocol was authorized and approved by the Institutional Animal Care and Use Committee of Louisiana State University Health Sciences Center, New Orleans, and followed the ARRIVE guidelines. Briefly, full-thickness burn wounds (6 mm diameter) were generated in the dorsal skin on both sides along the midline of C57BL/6J mice (female, 18 months old, Jackson Laboratory, Bar Harbor, ME, USA) at 0 days post burn (dpb), similar to the procedures performed by us and others previously. Each treatment group included four mice. […] We monitored mouse health and behavior, including drinking, foraging, grooming, and eating, and we examined all wounds twice per day to ensure that the hydrogel and dressing stayed in place. Wound healing was assessed as described previously. The wounds were photographed, and their areas were calculated using NIH ImageJ software version 1.54d. […] The livers, kidneys, and spleens were also collected, weighed, and measured for size to obtain a gross assessment of toxicity. […] The epithelial gap—i.e., the distance between the neoepithelium emerging from the edges of the wound area—was measured using OLYMPUS OlyVIA software version 3.4.1 (Build 26606), as described previously but with some modifications.

| Structure (SMILES) | Gelation Time ([1]; 1.5% w/v in PBS) | Gelation Feature [1] | other results |
| --- | --- | --- | --- |
| CCCCCCCCCCCCCCCC(=O)N[C@H](C(=O)N[C@@H](CC(C)C)C(=O)N[C@@H](CC(=O)O)C(N)=O)[C@@H](C)CC [Compound 4] (Palmitoyl-Ile-Leu-Asp-NH2) | 10 min | – | Concentration at which hydrogel forms in PBS [1]: ≥ 0.25 % (w/v) |
| CCCCCCCC(=O)N[C@@H](CC(C)C)C(=O)N[C@@H](CC(C)C)C(=O)N[C@@H](CC(=O)O)C(N)=O [Compound 12] (Octanoyl-Leu-Leu-Asp-NH2) | 5 min | – | – |
| CCCCCCCC(=O)N[C@H](C(=O)N[C@@H](CC(C)C)C(=O)N[C@@H](CC(=O)O)C(=O)O)[C@@H](C)CC [Compound 5] (Octanoyl-Ile-Leu-Asp-OH) | – | unable to form a hydrogel at all; also recorded: Not gelate | – |
| CC[C@H](C)[C@H](N)C(=O)N[C@@H](CC(C)C)C(=O)N[C@@H](CC(=O)O)C(N)=O [Compound 1] (H-Ile-Leu-Asp-NH2) | – | did not gelate | – |
| CCCCCCCCCCCC(=O)N[C@H](C(=O)N[C@@H](CC(C)C)C(=O)N[C@@H](CC(=O)O)C(N)=O)[C@@H](C)CC [Compound 3] (Lauroyl-Ile-Leu-Asp-NH2) | 6 min | – | Concentration at which hydrogel forms in PBS [1]: ≥ 0.25 % (w/v) |
| CCCCCCCC(=O)N[C@H](C(=O)N[C@H](C(=O)N[C@@H](CC(=O)O)C(N)=O)C(C)C)[C@@H](C)CC [Compound 10] (Octanoyl-Ile-Val-Asp-NH2) | 3 min | – | – |
| CCCCCCCC(=O)N[C@H](C(=O)N[C@H](C(=O)N[C@@H](CC(=O)O)C(N)=O)[C@@H](C)CC)[C@@H](C)CC [Compound 14] (Octanoyl-Ile-Ile-Asp-NH2) | 5 min | – | – |
| CCCCCCCC(=O)N[C@H](C(=O)N[C@@H](C)C(=O)N[C@@H](CC(=O)O)C(N)=O)[C@@H](C)CC [Compound 9] (Octanoyl-Ile-Ala-Asp-NH2) | 2 min | – | – |
| CCCCCCCC(=O)N[C@@H](C)C(=O)N[C@@H](CC(C)C)C(=O)N[C@@H](CC(=O)O)C(N)=O [Compound 11] (Octanoyl-Ala-Leu-Asp-NH2) | 3 min | – | – |
| CCCCCCCCCCCC(=O)N[C@H](C(=O)N[C@@H](CC(C)C)C(=O)N[C@@H](CC(=O)O)C(=O)O)[C@@H](C)CC [Compound 6] (Lauroyl-Ile-Leu-Asp-OH) | 7 min | Hydrogels were formed | Hydrogel stability when shaken by hand [1]: weaker than those formed by Cn acid-ILD-NH2 with the same Cn acid |
| CCCCCCCCCCCCCCCC(=O)N[C@H](C(=O)N[C@@H](CC(C)C)C(=O)N[C@@H](CC(=O)O)C(=O)O)[C@@H](C)CC [Compound 8] (Palmitoyl-Ile-Leu-Asp-OH) | 15 min | Hydrogels were formed | Hydrogel stability when shaken by hand [1]: weaker than those formed by Cn acid-ILD-NH2 with the same Cn acid |
| CCCCCCCCCCCCCC(=O)N[C@H](C(=O)N[C@@H](CC(C)C)C(=O)N[C@@H](CC(=O)O)C(=O)O)[C@@H](C)CC [Compound 7] (Myristoyl-Ile-Leu-Asp-OH) | 10 min | Hydrogels were formed | Hydrogel stability when shaken by hand [1]: weaker than those formed by Cn acid-ILD-NH2 with the same Cn acid |
| CCCCCCCC(=O)N[C@H](C(=O)N[C@@H](CC(C)C)C(=O)N[C@@H](CC(=O)O)C(N)=O)C(C)C [Compound 13] (Octanoyl-Val-Leu-Asp-NH2) | 6 min | – | – |
| CCCCCCCC(=O)N[C@@H](CC(C)C)C(=O)N[C@H](C(=O)N[C@@H](CC(=O)O)C(N)=O)[C@@H](C)CC [Compound 15] (Octanoyl-Leu-Ile-Asp-NH2) | 5 min | – | – |
| CCCCCCCC(=O)N[C@H](C(=O)N[C@@H](CC(C)C)C(=O)N[C@@H](CC(=O)O)C(N)=O)[C@@H](C)CC [Compound 2, caprylic acid–isoleucine–leucine–aspartic acid amide conjugate] (Octanoyl-Ile-Leu-Asp-NH2) | – | – | Gel stability at pH 2–8 ([1]; 1.5% w/v in PBS, pH 2–8): gelated and stable; also recorded: formed a hydrogel and stayed gelated; Hydrogel stability when shaken by hand [1]: more stable than either (3) or (4); Gel stability at pH 10 [2]: no gelation; Systematic or local toxicity during the wound healing test [3]: did not show systematic or local toxicity |
